{
  "source": "patent US20190282590A1",
  "about": "“MEDICAMENT FOR TREATMENT AND/OR PROPHYLACTIC TREATMENT OF BREAST CANCER” (HAKMED AB, priority 2016, published 2019)",
  "key": {"[1]": {"details": "cited from earlier work"}, "[2]": {"details": "prevention mainly limited to less severe prostate cancer; cited from earlier work"}, "[3]": {"type": "in vivo", "description": "Since July 2005 369 cases of MBC were identified from the Swedish Cancer Register and each case was matched to five controls (n=[…]) from the general population of the same age and domicile. Medicines with documented side effects of hormonal imbalance or gynecomastia were collected from the Prescribed Drug Register in operation since July 2005. Drug exposure was followed both for cases and controls until the cancer diagnosis or death of the case. Cases and controls with a diagnosis of prostate cancer were excluded. The data were mainly analyzed with conditional logistic regression and Cox regression.\nCox regression and nested case-control analysis were used in analysis of the ever-use variable of any of the included medicines, after the exclusion phases (described below), as well as after the grouping phase and generated study design-specific hazard ratios (HR) and 95% confidence intervals (CI). P-values less than 0.05 were considered statistically significant. All processing of the data and statistical analysis was made using R programming for statistical computing and ended with the effectuation of conditional logistic regression, Cox regression and nested case-control. Using multiple statistical methods provided additional statistical certainty.\nIn this second line of statistical analysis, the match sets created by Statistics Sweden were kept, using the ID number of the case to connect the five matched controls to each case. All medical use after the time of diagnosis of the case was excluded, which applied also to the controls, meaning that the matched control's medical usage after the date of diagnosis of the case was censored using the predefined match sets. All subjects were classified as non-users until the date of the first prescription of one of the included medicines. […]\nThe first prescribed medicine for each individual with recorded medical use was selected, since this was likely to be the medicine each individual had used for the longest period of time. […]"}, "[4]": {"details": "except in skeletal muscle tissue; cited from earlier work"}},
  "data": [
    {"compound": "C[C@]12C=CC(=O)N[C@@H]1CC[C@@H]1[C@@H]2CC[C@]2(C)[C@@H](C(=O)Nc3cc(C(F)(F)F)ccc3C(F)(F)F)CC[C@@H]12", "note": "[dutasteride, (5α,17β)-N-{2,5-Bis(trifluoromethyl)phenyl}-3-oxo-4-azaandrost-1-ene-17-carboxamide]", "values": [
      {"measurement": "Adverse effects in clinical studies", "setting": "[1]; 5 mg daily for 6 months, patients, compared with therapeutic dose 0.5 mg", "result": "no additional adverse effects"},
      {"measurement": "Safety of single daily doses", "setting": "[1]; up to 40 mg/day (80 times the therapeutic dose) for 7 days, healthy volunteers", "result": "without significant safety concerns"},
      {"measurement": "Effect on prostate cancer (in words)", "setting": "[2]", "result": "a better prognosis has been shown"},
      {"measurement": "Preventive effect on MBC (in words)", "setting": "[3]; register study, 5-ARI users", "result": "preventive effect was strongest"}
    ]},
    {"compound": "COc1cc2nc(N3CCN(C(=O)C4CCCO4)CC3)nc(N)c2cc1OC", "note": "(stereo not shown) [Terazosin]", "values": [
      {"measurement": "Association of medication use with risk of MBC (in words)", "setting": "[3]", "result": "significant correlation to increased risk of MBC"}
    ]},
    {"compound": "C[C@]12CCC(=O)C[C@@H]1CC[C@@H]1[C@@H]2CC[C@]2(C)[C@@H](O)CC[C@@H]12", "note": "[DHT, dihydrotestosterone]", "values": [
      {"measurement": "Potency relative to testosterone or other androgens", "setting": "[4]", "result": "3-5 times"}
    ]},
    {"compound": "COc1cc2nc(N(C)CCCNC(=O)C3CCCO3)nc(N)c2cc1OC", "note": "(stereo not shown) [Alfuzosin]", "values": [
      {"measurement": "Association of medication use with risk of MBC (in words)", "setting": "[3]", "result": "significant correlation to increased risk of MBC"}
    ]}
  ]
}
